# Results published in US20140271723A1 (priority 2013, published 2014).
# Tested on: pseudorabies virus (PRV)
# Design: species or system pigs
# Conditions: pig, in vivo
row,Sequence,protection from mortality caused by challenge with virulent PRV
1,KKSVRGKGKGQKRKRKKSRYKSWSV [VEGF peptide],protected the animals from mortality
2,YVRVRRPPKGKHRKFKHTH [PDGF peptide],protected the animals from mortality
